Data: PubChem BioAssay (NCI)
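Grown in 96-well plates, cells were treated for 48 hours with each compound at five concentrations. Insufficient inhibition: endpoint recorded as highest concentration tested. Abbreviation: GI50, concentration required for 50% inhibition of growth. TGI: total growth inhibition.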

Legend:
Experiment in all cases: inhibition of tumour cell growth, NCI panel, 48 h
A549 NSCLC = test system: A549 NSCLC
COLO 205 colon = test system: COLO 205 colon
HCC-2998 colon = test system: HCC-2998 colon
HT29 colon = test system: HT29 colon
NCI-H226 lung = test system: NCI-H226 lung
NCI-H460 lung = test system: NCI-H460 lung
SF-295 CNS = test system: SF-295 CNS
SN12C renal = test system: SN12C renal
U251 CNS = test system: U251 CNS
UACC-257 melanoma = test system: UACC-257 melanoma

## COc1cc2ncnc(-n3ncc4cc(NC(=O)Nc5ccccc5)ccc43)c2cc1OC
A549 NSCLC
  GI50: 1.79 µM
  TGI: 8.74 µM
COLO 205 colon
  GI50: 1.32 µM
  TGI: 4.53 µM
HCC-2998 colon
  GI50: 1.88 µM
  TGI: 11.2 µM
HT29 colon
  GI50: 0.615 µM
  TGI: 10.9 µM
NCI-H226 lung
  GI50: 1.07 µM
  TGI: 4.06 µM
NCI-H460 lung
  GI50: 0.706 µM
  TGI: 16.4 µM
SF-295 CNS
  GI50: 0.73 µM
  TGI: 5.87 µM
SN12C renal
  GI50: 1.14 µM
  TGI: 5.78 µM
U251 CNS
  GI50: 1.27 µM
  TGI: 3.23 µM
UACC-257 melanoma
  GI50: 2.32 µM
  TGI: 5.13 µM

## Cn1cc(C2(C)CC(C)(C)c3c2n(C)c2ccccc32)c2ccccc21 (centres undefined)
A549 NSCLC
  TGI: > 100 µM
COLO 205 colon
  TGI: > 100 µM
HCC-2998 colon
  TGI: > 100 µM
HT29 colon
  TGI: > 100 µM
NCI-H226 lung
  TGI: > 100 µM
NCI-H460 lung
  TGI: > 100 µM
SF-295 CNS
  TGI: > 100 µM
SN12C renal
  TGI: > 100 µM
U251 CNS
  TGI: > 100 µM
UACC-257 melanoma
  TGI: > 100 µM

## COc1ccc(C(=O)c2cc(OC)c(OC)c(OC)c2)cc1/C=C/C(=O)c1ccc(F)cc1
A549 NSCLC
  GI50: 16.5 µM
  TGI: > 100 µM
COLO 205 colon
  GI50: 5.18 µM
  TGI: 28.1 µM
HCC-2998 colon
  GI50: 7.29 µM
  TGI: 22.6 µM
HT29 colon
  GI50: 2.44 µM
  TGI: 5.63 µM
NCI-H226 lung
  GI50: 3.57 µM
  TGI: 18.1 µM
NCI-H460 lung
  GI50: 16 µM
  TGI: 52.7 µM
SF-295 CNS
  GI50: 7.21 µM
  TGI: 37.3 µM
SN12C renal
  GI50: 2.62 µM
  TGI: 8.18 µM
U251 CNS
  GI50: 1.85 µM
  TGI: 3.54 µM
UACC-257 melanoma
  GI50: 12.3 µM
  TGI: 49.7 µM

## COC(=O)C(CC(=O)Nc1ccc(C)cc1)C(=O)C(=O)Nc1c(C(C)C)cccc1C(C)C (centres undefined)
A549 NSCLC
  TGI: > 100 µM
COLO 205 colon
  TGI: > 100 µM
HCC-2998 colon
  TGI: > 100 µM
NCI-H226 lung
  TGI: > 100 µM
NCI-H460 lung
  TGI: > 100 µM
SN12C renal
  TGI: > 100 µM
U251 CNS
  TGI: > 100 µM

## COc1ccc(C2=C(Cl)c3cc(OC)c(OC)cc3C2Cl)cc1 (centres undefined)
A549 NSCLC
  TGI: 36.5 µM
COLO 205 colon
  TGI: 33.4 µM
HCC-2998 colon
  TGI: 28.1 µM
HT29 colon
  TGI: 28.8 µM
NCI-H226 lung
  TGI: 66 µM
NCI-H460 lung
  TGI: 27.4 µM
SF-295 CNS
  TGI: 34.1 µM
SN12C renal
  TGI: 30.5 µM
U251 CNS
  TGI: 26.6 µM
UACC-257 melanoma
  TGI: 39.6 µM

## O=C(/C=C/c1ccc(Cl)c(Cl)c1)c1ccc2ccccc2c1
A549 NSCLC
  TGI: > 100 µM
COLO 205 colon
  TGI: 28.7 µM
HCC-2998 colon
  TGI: > 100 µM
HT29 colon
  TGI: > 100 µM
NCI-H226 lung
  TGI: > 100 µM
NCI-H460 lung
  TGI: > 100 µM
SF-295 CNS
  TGI: > 100 µM
SN12C renal
  TGI: 71.6 µM
U251 CNS
  TGI: > 100 µM
UACC-257 melanoma
  TGI: > 100 µM

## COc1ccc(-c2[nH]c3ccc(OC)cc3c2/C=C(\C#N)S(=O)(=O)c2ccccc2)cc1
A549 NSCLC
  GI50: 2.01 µM
  TGI: > 68.3 µM
COLO 205 colon
  GI50: 0.396 µM
  TGI: 1.83 µM
HCC-2998 colon
  GI50: 1.95 µM
  TGI: 5.87 µM
HT29 colon
  GI50: 0.435 µM
  TGI: > 32.2 µM
NCI-H226 lung
  GI50: 3.51 µM
  TGI: > 100 µM
NCI-H460 lung
  GI50: 0.659 µM
  TGI: > 26 µM
SF-295 CNS
  GI50: 0.709 µM
  TGI: > 23.9 µM
SN12C renal
  GI50: 2.2 µM
  TGI: > 100 µM
U251 CNS
  GI50: 0.557 µM
  TGI: > 100 µM
UACC-257 melanoma
  GI50: 7.06 µM
  TGI: > 46.5 µM

## O=c1cc(NCC(O)CN2CCCC2)n(Cc2ccccc2)c(=O)n1Cc1ccccc1 (centres undefined)
A549 NSCLC
  GI50: > 100 µM
  TGI: > 100 µM
COLO 205 colon
  GI50: 19.3 µM
  TGI: 40.4 µM
HCC-2998 colon
  GI50: 25.8 µM
  TGI: 77.7 µM
HT29 colon
  GI50: 20 µM
  TGI: 49 µM
NCI-H226 lung
  GI50: > 100 µM
  TGI: > 100 µM
NCI-H460 lung
  GI50: 39.7 µM
  TGI: > 100 µM
SF-295 CNS
  GI50: 46.6 µM
  TGI: > 100 µM
SN12C renal
  GI50: > 100 µM
  TGI: > 100 µM
U251 CNS
  GI50: 43.6 µM
  TGI: > 100 µM
UACC-257 melanoma
  GI50: 31.9 µM
  TGI: 85.6 µM

## CCc1nc2cc(F)c(/C=C/C(=O)NO)cc2c(=O)n1CCc1ccccc1
A549 NSCLC
  GI50: 0.335 µM
  TGI: 2.67 µM
COLO 205 colon
  GI50: 0.221 µM
  TGI: 0.537 µM
HCC-2998 colon
  GI50: 0.381 µM
  TGI: 12.7 µM
HT29 colon
  GI50: 0.343 µM
  TGI: 12.1 µM
NCI-H226 lung
  GI50: 0.371 µM
  TGI: 7.36 µM
NCI-H460 lung
  GI50: 0.31 µM
  TGI: 3.17 µM
SF-295 CNS
  GI50: 0.234 µM
  TGI: 0.617 µM
U251 CNS
  GI50: 0.277 µM
  TGI: 0.891 µM
UACC-257 melanoma
  GI50: 0.216 µM
  TGI: 0.72 µM

## COc1cc(OC)c(C(=O)/C=C/c2cccc(C(F)(F)F)c2)c(OC)c1
A549 NSCLC
  GI50: 1.48 µM
  TGI: 4.82 µM
COLO 205 colon
  GI50: 1.06 µM
  TGI: 2.21 µM
HCC-2998 colon
  GI50: 2.11 µM
  TGI: 6.89 µM
HT29 colon
  GI50: 1.69 µM
  TGI: 4.75 µM
NCI-H226 lung
  GI50: 1.16 µM
  TGI: 3.74 µM
NCI-H460 lung
  GI50: 1.08 µM
  TGI: 2.67 µM
SF-295 CNS
  GI50: 1.67 µM
  TGI: 6.72 µM
SN12C renal
  GI50: 1.52 µM
  TGI: 5.68 µM
U251 CNS
  GI50: 1.01 µM
  TGI: 2.1 µM
UACC-257 melanoma
  GI50: 2.06 µM
  TGI: 7.89 µM

## C/C(=N\Nc1ccc(Cl)cn1)c1ccc2ccccc2n1
A549 NSCLC
  GI50: 4.22 µM
  TGI: > 100 µM
COLO 205 colon
  GI50: 2.98 µM
  TGI: > 100 µM
HCC-2998 colon
  GI50: 3.23 µM
  TGI: > 100 µM
HT29 colon
  GI50: 5.05 µM
  TGI: > 100 µM
NCI-H226 lung
  GI50: 11.5 µM
  TGI: > 100 µM
NCI-H460 lung
  GI50: 2.92 µM
  TGI: 19.6 µM
SF-295 CNS
  GI50: 3.06 µM
  TGI: > 100 µM
SN12C renal
  GI50: 3.19 µM
  TGI: > 100 µM
U251 CNS
  GI50: 2.83 µM
  TGI: > 100 µM
UACC-257 melanoma
  GI50: 5.33 µM
  TGI: 97.3 µM

## CC1=C(/C=C/Cl)CC(Cl)C(C)(Cl)C1 (centres undefined)
A549 NSCLC
  TGI: > 100 µM
COLO 205 colon
  TGI: > 100 µM
HCC-2998 colon
  TGI: > 100 µM
HT29 colon
  TGI: > 100 µM
NCI-H226 lung
  TGI: > 100 µM
NCI-H460 lung
  TGI: > 100 µM
SF-295 CNS
  TGI: > 100 µM
SN12C renal
  TGI: > 100 µM
U251 CNS
  TGI: > 100 µM
UACC-257 melanoma
  TGI: > 100 µM

## COc1cc2c(cc1OCCCCC(=O)Nc1cc3c4ccccc4ccc3c3ccccc13)N=C[C@@H]1CCCN1C2=O
A549 NSCLC
  GI50: 27.1 µM
  TGI: 61.3 µM
COLO 205 colon
  GI50: 7.65 µM
  TGI: > 100 µM
HCC-2998 colon
  GI50: 10.9 µM
  TGI: 33.5 µM
HT29 colon
  GI50: 5.86 µM
  TGI: > 76.2 µM
NCI-H226 lung
  GI50: 0.665 µM
  TGI: 10.8 µM
NCI-H460 lung
  GI50: 5.33 µM
  TGI: 51.5 µM
SF-295 CNS
  GI50: 6.98 µM
  TGI: 63.1 µM
SN12C renal
  GI50: 22.6 µM
  TGI: 89.3 µM
U251 CNS
  GI50: 8.02 µM
  TGI: > 100 µM
UACC-257 melanoma
  GI50: 7.77 µM
  TGI: 18.4 µM

## CCOC(=O)C(=O)Nc1ccccc1CC
A549 NSCLC
  TGI: > 100 µM
HCC-2998 colon
  TGI: > 100 µM
HT29 colon
  TGI: > 100 µM
NCI-H226 lung
  TGI: > 100 µM
NCI-H460 lung
  TGI: > 100 µM
SF-295 CNS
  TGI: > 100 µM
SN12C renal
  TGI: > 100 µM
U251 CNS
  TGI: > 100 µM
UACC-257 melanoma
  TGI: > 100 µM

## COc1c2c(cc3c1OCO3)[C@]13C=C[C@H](OC)C[C@H]1N(C2)CC3O (some centres undefined)
A549 NSCLC
  TGI: > 100 µM
COLO 205 colon
  TGI: > 100 µM
HCC-2998 colon
  TGI: > 100 µM
HT29 colon
  TGI: > 100 µM
NCI-H226 lung
  TGI: > 100 µM
NCI-H460 lung
  TGI: > 100 µM
SF-295 CNS
  TGI: > 100 µM
SN12C renal
  TGI: > 100 µM
U251 CNS
  TGI: > 100 µM
UACC-257 melanoma
  TGI: > 100 µM
